Reference: patent US11135252B2, “Probiotic therapies for developmental disorders and other neurological disorders” (Baylor College of Medicine, priority 2016, dated 2021)

Experiments:
[1] = tested on: Cntnap2-deficient mice; conditions: mice lacking Cntnap2; oxytocin (Penagarikano et al., 2015; 2011); cited from earlier work
[2] = tested on: oxytocin immunoreactivity in the PVN; assay: Oxytocin immunofluorescence in the PVN of MHFD offspring; type: in vivo, mice; conditions: for oxytocin-positive cell number in the PVN: relative to heat-killed L. reuteri / control treatment
Procedure: Lactobacillus reuteri MM4-1A (ATCC-PTA-6475) and Lactobacillus johnsonii (ATCC 33200) were cultured anaerobically in MRS broth in a 90% N2, 5% CO2, 5% H2 environment. L. reuteri was heat-killed by keeping the bacteria at 80° C. for 20 minutes (Wang et al., 2010). Bacterial viability was assessed by plating and the efficacy of the heat-kill procedure was confirmed by the absence of colony growth following plating. Cultures were centrifuged, washed, and resuspended in anaerobic solution (PBS) and frozen at −80° C. until use. PBS, live or heat-killed L. reuteri were added to the drinking water, which was changed daily to minimize dosage variability. Whereas the experimental group received live bacteria, one control group received identically prepared cultures of heat-killed bacteria. A second group of control mice received water treated with PBS alone. Live and heat-killed L. reuteri were supplied at a dosage of 1×10^8 organisms/mouse/day continuously in drinking water. Mice consumed the treated water ad libitum over the treatment period. The treated drinking water for each group was replaced daily two hours prior to the onset of the dark cycle to minimize variation in microbial exposure. Behavioral assays were initiated after 4-weeks of L. reuteri or control treatment. The protocol of the L. johnsonii preparation and administration matched the L. reuteri protocol. Fecal samples for sequencing and tissue used in the immunofluorescence studies were collected at the end of the treatment.
Mice were deeply anesthetized by inhalation of isoflurane and perfused transcardially with 10 ml 0.9% phosphate-buffered saline followed by 30 ml 4% paraformaldehyde in 0.1M phosphate buffer (PFA). […] Fluorescence intensity was measured in ImageJ (NIH) by selecting regions of interest (Oxytocin- and NeuN-positive hypothalamic cell bodies). Hypothalamic oxytocin-expressing neuronal population and NeuN+ cell number was assessed in ImageJ using the following operational sequence: (1) open image file, (2) subtract background, (3) adjust threshold, (4) convert to mask, (5) watershed, (6) analyze particles. […]

[3] = tested on: Cntnap2-deficient mice; assay: Social behavior (sociability, social novelty) in Cntnap2-deficient mice; type: in vivo
Procedure: Crawley's three-chamber test for sociability and preference for social novelty was performed as described (Silverman et al., 2010). In brief, the mouse first experienced a 10-minute period of habituation during which it was allowed to freely explore a 60×40×23 cm Plexiglass arena divided into three equally sized, interconnected chambers (Left, Center, Right). Sociability was measured during a second ten-minute period in which the subject could interact either with an empty wire cup (Empty) or a wire cup containing an age and sex-matched stranger conspecific (Mouse 1). Time spent interacting (sniffing, crawling upon) with either the empty cup or the stranger mouse contained in the other cup as well as time spent in each chamber was recorded using the AnyMaze software, by independent observers. Empty cup placement in the Left or Right chamber during the Sociability period was counterbalanced between trials. Finally, preference for social novelty was assayed by introducing a second stranger mouse (Mouse 2) into the previously the empty wire cup. Time spent in each chamber as well as time spent interacting with either Mouse 1 or Mouse 2 was recorded using the automated AnyMaze software by independent observers.
To examine whether treatment with L. reuteri could restore ASD-like behaviors in genetic models of ASD, we studied mice lacking contactin associated protein-like 2 (CNTNAP2). Mutations in CNTNAP2 have been associated with syndromic forms of ASD (Nascimento, et al., 2016; Yoo, et al., 2017; Zare, et al., 2017; el-Sobky, et al., 2004; Alarcon, et al., 2008; Sampath, et al., 2013; Chiocchetti, et al., 2015), thereby serving as a genetic model of autism in mice. Second, mice lacking Cntnap2 show ASD-like behaviors (Penagarikano, et al.).

[4] = mice lacking Cntnap2, L. reuteri in drinking water

| Molecule | social behavioral abnormalities [1] | oxytocin immunofluorescence intensity in the PVN ([2]; relative to heat-killed L. reuteri) | oxytocin-positive cell number in the PVN [2] | oxytocin-positive cell number in the PVN ([2]; listed as live L. reuteri) | social behavior abnormalities ([3]; Cntnap2-deficient mice, L. reuteri treatment) | sociability [3, 4] | social novelty [3, 4] |
| --- | --- | --- | --- | --- | --- | --- | --- |
| CC[C@H](C)[C@@H]1NC(=O)[C@H](Cc2ccc(O)cc2)NC(=O)[C@@H](N)CSSC[C@@H](C(=O)N2CCC[C@H]2C(=O)N[C@@H](CC(C)C)C(=O)NCC(N)=O)NC(=O)[C@H](CC(N)=O)NC(=O)[C@H](CCC(N)=O)NC1=O [oxytocin] | rescues the social behavioral abnormalities |  |  |  |  |  |  |
| Lactobacillus reuteri MM4-1A (ATCC-PTA-6475) [L. reuteri] |  | significantly increased | higher than in control-treated MHFD offspring | significantly increased | reverses the social behavior abnormalities | reverses the deficient sociability | reverses |
